We go through one compound from patent publication US6814966B1, “Methods for treating glaucoma” (Pharmacia Corporation, priority 2000, dated 2004).

The assay relates to retinal ganglion cells in co-cultures with glial cells. Description: TUNEL apoptosis of retinal ganglion cells in co-cultures with glial cells under stress conditions. It is filed as cell-based, rat. As to conditions: for decrease of rate of positive TUNEL: antibody 10 ug/ml, 1400W 2.5 uM. How it is done:
Retinal ganglion cell cultures. Primary cultures of retinal ganglion cells were derived from newborn rat retinas using a protocol similar to that recently described^70. All experiments were performed in accordance with the ARVO Statement for the Use of Animals in Ophthalmic and Vision Research and were approved by The Animal Studies Committee of Washington University. Five to seven days old Sprague-Dawley rats were anesthetized and their eyes were enucleated. The eyes were rinsed with CO2-independent culture medium (Gibco, Grand Island, N.Y.) and retinas were mechanically dissected under a microscope. To prepare retinal cell suspensions, tissues were dissociated in Eagles's minimum essential medium containing 20 U/ml papain, 1 mM L-cystein 0.5 mM EDTA and DNase (0.005%) (Worthington, Lakewood, N.J.) at 37° C. for 40 minutes. Then, retinas were rinsed in an inhibitor solution containing Eagle's minimum essential medium, ovomucoid (0.2%) (US Biological, Swampscott, Mass.), DNAase (0.04%) and bovine serum albumin (0.1%) (Sigma, St. Louis, Mo.). At the end of treatment period, tissues were triturated through a 1 ml plastic pipette to yield a suspension of single cells. The retinal cells were spun at 400 g for 10 minutes, resuspended in Eagle's minimum essential medium containing bovine serum albumin (0.05%) and incubated in a tissue culture incubator until their immediate use for subsequent separation by immunomagnetic selection^71,72.
Immunomagnetic selection of the retinal ganglion cells was performed using magnetic, 2.8±0.2 um diameter, polystyrene beads coated with biotinylated rat monoclonal antibody against mouse IgG1 (Dynal, Oslo, Norway) in a two step process. In the first step, after washing with phosphate buffered saline solution containing 0.1% bovine serum albumin, 1×10^7 beads/ml were added to monoclonal antibody against macrophage surface antigens (100 ug/ml) (Sigma). After incubation at room temperature on a rotator for 30 minutes, beads were washed using a specially designed magnet (Dynal). […]

Regarding `CC(=N)NCc1cccc(CN)c1.Cl.Cl` [1400W, N-(3-(aminomethyl)benzyl)acetamidine. dihydrochloride], the “decrease of rate of positive TUNEL” value (co-cultures under elevated hydrostatic pressure) was “approximately 35%” and the “decrease of rate of positive TUNEL” value (co-cultures under simulated ischemia) is recorded as “approximately 50%”. In addition, where the note is “summary statement, simulated ischemia and elevated hydrostatic pressure, stressor not specified”, the “attenuation of retinal ganglion cell apoptosis” value is around 50%.
